In PubChem BioAssay (NCI):
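Briefly, cells in 96-well plates were exposed to five compound concentrations for 48 h, and endpoints were estimated by linear interpolation. TGI: concentration producing complete growth inhibition.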

Key:
Test in all cases: NCI anticancer screen, dose series, 48 h
[1] = system: NCI-H226 lung
[2] = system: NCI-H460 lung
[3] = system: BT-549 breast
[4] = system: HL-60(TB) leukemia
[5] = system: K-562 leukemia
[6] = system: MDA-N
[7] = system: A498 renal
[8] = system: SW-620 colon
[9] = system: SN12C renal
[10] = system: U251 CNS
[11] = system: CAKI-1 renal
[12] = system: SK-MEL-5 melanoma
[13] = system: 786-0 renal
[14] = system: SNB-19 CNS
[15] = system: HS 578T breast
[16] = system: IGROV1 ovarian
[17] = system: TK-10 renal
[18] = system: KM12 colon
[19] = system: RPMI-8226 leukemia

Row | Compound | TGI [1] [µM] | TGI [2] [µM] | TGI [3] [µM] | TGI [4] [µM] | TGI [5] [µM] | TGI [6] [µM] | TGI [7] [µM] | TGI [8] [µM] | TGI [9] [µM] | TGI [10] [µM] | TGI [11] [µM] | TGI [12] [µM] | TGI [13] [µM] | TGI [14] [µM] | TGI [15] [µM] | TGI [16] [µM] | TGI [17] [µM] | TGI [18] [µM] | TGI [19] [µM]
1 | c1nc(N2CC2)c2cnn(C3CCCCO3)c2n1 (stereo not drawn) | > 100 | > 100 | > 100 | > 100 | > 100 | > 100 | > 100 | > 100 | > 100 | > 100 | > 100 | > 100 | > 100 | > 100 | > 100 | > 100 | > 100 | > 100 | > 100
2 | [Cl-].[Rh+3].c1cnc2c(c1)ccc1cccnc12.c1cnc2c(c1)ccc1cccnc12.c1cnc2c(c1)ccc1cccnc12 |  | > 100 |  | > 100 | > 100 |  |  | > 100 | > 100 | > 100 |  | > 100 | > 100 |  |  | > 100 |  | > 100 | 
3 | CN1CCN(c2ccc3[nH]c(-c4cc(O)c5c(nc(CO)n5C)c4O)nc3n2)CC1 | 96.5 | > 100 | > 100 | 47.2 | > 100 | > 100 |  | > 100 | 36.8 | 44.2 | > 100 |  | > 100 | > 100 | > 100 | > 100 |  | > 100 | > 100
4 | CCCCC(=O)c1ccc2ccccc2c1O | > 100 | > 100 | > 100 | > 100 | > 100 |  | > 100 | > 100 |  | > 100 | > 100 | > 100 | > 100 | > 100 | > 100 | > 100 | > 100 | > 100 | > 100
5 | C[C@]12CC[C@H](OC(=O)Cc3ccc(N(CCCl)CCCl)cc3)CC1=CC[C@@H]1[C@@H]2CC[C@]2(C)C(=O)CC[C@@H]12 | > 100 | > 100 | > 100 | > 100 | > 100 | > 100 | > 100 | > 100 | > 100 | > 100 | > 100 | > 100 |  | > 100 | > 100 | > 100 | > 100 | > 100 | > 100
6 | CCCC/C=C/C/C=C/CCCCCCCCC(=O)OCC1CCCN2CCCCC12 (stereo not drawn) | > 100 | > 100 | > 100 | > 100 | > 100 | > 100 | > 100 | > 100 | > 100 | > 100 | > 100 | > 100 | > 100 | > 100 | > 100 |  | > 100 | > 100 | > 100
7 | O=C(O)CCC(=O)Nc1ccc2ccccc2c1 | > 100 | > 100 | > 100 | > 100 | > 100 | > 100 | > 100 | > 100 | > 100 | > 100 | > 100 | > 100 | > 100 | > 100 | > 100 | > 100 | > 100 | > 100 | > 100
8 | CCOC(=O)NC(=O)c1cn(CCNCCO)c(=O)[nH]c1=O | > 100 | > 100 |  | > 100 | > 100 |  |  | > 100 | > 100 | > 100 | > 100 | > 100 |  | > 100 |  | > 100 |  | > 100 | > 100
9 | COc1ccc(CC2CCc3nc(N)nc(N)c3C2)cc1OC (stereo not drawn) | 42.4 | > 48.6 | 51.7 | > 100 | > 100 | > 44 | > 100 | > 100 | > 100 | > 100 | > 100 | 18.5 |  | > 89 | > 100 | > 64 | > 100 | > 100 | > 100
10 | CC(CCC(=O)O)(c1ccc(O)cc1)c1ccc(O)cc1 | > 100 | > 100 | > 100 |  | > 100 | > 100 | > 100 | > 100 | > 100 | > 100 | > 100 | > 100 | > 100 | > 100 | > 100 | > 100 | > 100 | > 100 | 
11 | O=C(N/N=C/C=C/c1ccccc1)[C@H](O)[C@@H](O)C(=O)N/N=C/C=C/c1ccccc1 |  | > 100 |  | > 100 | > 100 |  | > 100 | > 100 | > 100 | > 100 |  | > 100 |  | > 100 |  | > 100 | > 100 | > 100 | > 100
